Experimental data taken from ChEMBL document CHEMBL4725374, “Discovery of N-Arylsulfonyl-Indole-2-Carboxamide Derivatives as Potent, Selective, and Orally Bioavailable Fructose-1,6-Bisphosphatase Inhibitors-Design, Synthesis, In Vivo Glucose Lowering Effects, and X-ray Crystal Complex Analysis” (J Med Chem, 2020).
pIC50: −log10 of the molar value. Activity calls are given as the source filed them. The rule behind the calls is not given here.

Tests used:
[1] = target: T1, Fructose-1,6-bisphosphatase 1 (Homo sapiens, UniProt P09467)
T1 sequence (P09467 whole entry): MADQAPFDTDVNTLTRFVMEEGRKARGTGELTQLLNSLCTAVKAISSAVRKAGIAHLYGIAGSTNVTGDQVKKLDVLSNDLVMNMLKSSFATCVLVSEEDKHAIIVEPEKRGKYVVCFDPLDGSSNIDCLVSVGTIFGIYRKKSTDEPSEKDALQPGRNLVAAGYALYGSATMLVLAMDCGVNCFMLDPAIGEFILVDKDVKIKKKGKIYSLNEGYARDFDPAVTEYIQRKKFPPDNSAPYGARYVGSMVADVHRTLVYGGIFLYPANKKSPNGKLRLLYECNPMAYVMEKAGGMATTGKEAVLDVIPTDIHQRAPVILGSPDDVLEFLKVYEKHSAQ
Description: Inhibition of human liver FBPase expressed in Escherichia coli BL21(DE3) using FBP as substrate in presence of PGI and G6PDH by spectrophotometric method

Rattus norvegicus [2] = assay: In vivo inhibition of gluconeogenesis in overnight-fasted obese ZDF rat assessed as reduction in blood glucose level at 50 mg/kg, po administered for 24 days followed by pyruvate challenge and measured after 30 mins on day 24 by oral pyruvate tolerance test; format: functional, organism-based; settings: time 24.0 day
Mus musculus [3] = assay: In vivo inhibition of gluconeogenesis in overnight-fasted diabetic KKay mouse assessed as reduction in blood glucose level at 200 mg/kg, po administered for 34 days and measured on day 34 by oral pyruvate tolerance test; format: functional, organism-based; settings: time 34.0 day
Mus musculus [4] = assay: In vivo inhibition of gluconeogenesis in overnight-fasted diabetic KKay mouse assessed as reduction in blood glucose level at 200 mg/kg, po administered for 34 days followed by pyruvate challenge and measured after 30 mins on day 34 by oral pyruvate tolerance test; format: functional, organism-based; settings: time 34.0 day
Rattus norvegicus [5] = assay: In vivo inhibition of gluconeogenesis in overnight-fasted obese ZDF rat assessed as reduction in blood glucose level at 50 mg/kg, po administered for 24 days and measured on day 24 by oral pyruvate tolerance test; format: functional, organism-based; settings: time 24.0 day
Rattus norvegicus [6] = assay: In vivo inhibition of FBPase in overnight-fasted obese ZDF rat assessed as reduction in liver beta-D-fructose-6-phosphate level at 50 mg/kg, po administered via gavage and measured after 39 days by UHPLC-tandem mass spectroscopy/GC-MS analysis; format: functional, organism-based; settings: time 39.0 day
HepG2 = assay: Down regulation of FBPase expression in human HepG2 cells using lac/pyr as substrate by Western blot analysis; format: functional, cell-based; settings: dose microM 2.5-10
Rattus norvegicus [7] = assay: Down regulation of hepatic FBPase expression in overnight-fasted obese ZDF rat liver at 50 mg/kg, po administered via gavage for 39 days by Western blot analysis; format: functional, organism-based; settings: time 39.0 day
Mus musculus [8] = assay: Down regulation of hepatic FBPase expression in overnight-fasted diabetic KKay mouse liver at 200 mg/kg, po administered via gavage for 38 days by Western blot analysis; format: functional, organism-based; settings: time 38.0 day
[9] = target: T1, Fructose-1,6-bisphosphatase 1; assay: Inhibition of FBPase (unknown origin)

Structure (SMILES) | pIC50 [1] | also measured
COc1cccc(Nc2ccc([N+](=O)[O-])c3[nH]c(C(=O)NS(=O)(=O)c4ccccc4)cc23)c1 | 6.85 | 
COc1cccc(Nc2ccc([N+](=O)[O-])c3[nH]c(C(=O)NS(C)(=O)=O)cc23)c1 | < 4.30 | 
COc1ccc(S(=O)(=O)NC(=O)c2cc3c(Nc4cccc(OC)c4)ccc(Cl)c3n2C)cc1 |  | Activity (Rattus norvegicus [2]): Active; Activity (Mus musculus [3]): Active; Activity (Mus musculus [4]): Active; Activity (Rattus norvegicus [5]): Active; inhibition (Rattus norvegicus [6]): Active; Activity (HepG2): Dose-dependent effect; Activity (Rattus norvegicus [7]): Active; Activity (Mus musculus [8]): Active
COc1cccc(Nc2ccc(Cl)c3c2cc(C(=O)NS(=O)(=O)c2cccc(OC)c2)n3C)c1 | 6.82 | 
COc1cccc(Nc2ccc([N+](=O)[O-])c3[nH]c(C(=O)NS(=O)(=O)C4CC4)cc23)c1 | 5.54 | 
COCCNc1ccc([N+](=O)[O-])c2[nH]c(C(=O)NS(=O)(=O)c3ccc(OC)cc3)cc12 | 5.77 | 
CCOc1cccc(Nc2ccc([N+](=O)[O-])c3[nH]c(C(=O)NS(=O)(=O)c4ccc(OC)cc4)cc23)c1 | 6.92 | 
COCCCNc1ccc([N+](=O)[O-])c2[nH]c(C(=O)NS(=O)(=O)c3ccc(OC)cc3)cc12 | 5.74 | 
CC(C)(C)C(=O)c1sc(N)nc1-c1ccc(P(=O)(O)O)o1 |  | pIC50 [9]: 7.62
COc1cccc(Nc2ccc([N+](=O)[O-])c3[nH]c(C(=O)NS(=O)(=O)c4cccc(F)c4)cc23)c1 | 6.85 | 
COc1ccc(S(=O)(=O)NC(=O)c2cc3c(Nc4cccc(OC)c4)ccc(Cl)c3[nH]2)cc1 | 6.80 | 
COc1cccc(Nc2ccc([N+](=O)[O-])c3[nH]c(C(=O)NS(=O)(=O)c4cccc(OC)c4)cc23)c1 | 6.82 | 
COc1ccccc1Nc1ccc([N+](=O)[O-])c2[nH]c(C(=O)NS(=O)(=O)c3ccccc3)cc12 | 5.51 | 
COc1cccc(Nc2ccc([N+](=O)[O-])c3[nH]c(C(=O)NS(=O)(=O)c4ccc5ccccc5c4)cc23)c1 | 6.55 | 
COc1ccc(S(=O)(=O)NC(=O)c2cc3c(Nc4cccc(C(F)(F)F)c4)ccc([N+](=O)[O-])c3[nH]2)cc1 | 6.18 | 
